Source: patent publication KR20100138114A, “안정성이 향상된 무정형 아데포비어 디피복실 고체분산체 및 이의 제조방법” (대원제약주식회사, priority 2009, dated 2010)

Legend:
[1] = pH 2.0; cited from earlier work
[2] = Crystal form conversion test of crystalline adefovir dipivoxil (Experimental Example 1, X-ray diffraction); assay type: physicochemical; details: overall conclusion: 40 °C, relative humidity 75%, 3 days, then drying at 60 °C

SMILES | solubility class (BCS) [1] | crystal form conversion depending on storage conditions [2]
CC(C)(C)C(=O)OCOP(=O)(COCCn1cnc2c(N)ncnc21)OCOC(=O)C(C)(C)C [아데포비어 디피복실, 9-[2-[[{bis(pivaloyloxy)-methoxy}phosphinyl]methoxy]ethyl]adenine] | 높은 용해도(High solubility) | –
CC(C)(C)C(=O)OCOP(=O)(COCCn1cnc2c(N)ncnc21)OCOC(=O)C(C)(C)C [신규결정형] | – | 결정형이 전환
